Measured values from publication PMC9095528, “Spectrofluorimetric Approach for Quantification of Cyclizine in the Presence of its Toxic Impurities in Human Plasma; in silico Study and ADMET Calculations” (Journal of Fluorescence, 2022).

How the values were obtained:
[1] = Stability of CYZ in plasma (short-term room temperature and freeze-thaw); assay type: in vitro ADME, human; conditions: rat plasma
Description: To cover the anticipated sample treatment and storage environments during the processing of samples, the stability of CYZ in human plasma was investigated as short‐term stability at room temperature and freeze–thaw stability. In all stability tests, three replicates of three concentrations at low, medium, and high levels were treated and compared to recently prepared QC samples.

[2] = Pharmacokinetics of CYZ in human plasma after I.V administration (non-compartmental analysis); assay type: in vivo
Description: One mL of CYZ was intravenously injected into three human volunteers in good health and Using a calibrated heparinized tube, a 5 mL sample of human blood was drawn from each volunteer after 0.5, 1, 2, 4, 8 hrs. All the collected samples were centrifuged for 20 min at 4000 rpm. 1 mL of each sample was quantitatively poured into a centrifuge tube, and 1 mL acetonitrile was applied to precipitate plasma proteins, until centrifugation at 4000 rpm for 20 minutes. The clear plasma supernatant was transferred to Eppendorf tubes and held at […] until the rest of the procedure was completed.
Non-compartmental analysis (NCA) was used to measure pharmacokinetic parameters such as half-life, C max, T max, elimination rate constant, clearance, apparent volume of distribution, and area under the curve using Thermo Kinetica software (version 5.0) and PK solver software after taking human plasma samples from previously injected volunteers. In deciding the proper usage of the drug and in forecasting the impact of pharmacokinetic drug interactions, the results of pharmacokinetic research have been helpful.

[3] = intravenous, I.V administration of Emetrex 50 mg

CN1CCN(C(c2ccccc2)c2ccccc2)CC1 [CYZ, 1-benzhydryl-4-methylpiperazine]
remaining at 6 h, 30 ng/mL ([1]; 30 ng/mL, room temperature for 6 h): 97 ± 1.13%
remaining at 30 ng/mL ([1]; 30 ng/mL, three freeze thaw cycle): 97.1 ± 1.32%
remaining at 6 h, 400 ng/mL ([1]; 400 ng/mL, room temperature for 6 h): 98.03 ± 0.98%
remaining at 400 ng/mL ([1]; 400 ng/mL, three freeze thaw cycle): 96.5 ± 0.97%
remaining at 6 h, 800 ng/mL ([1]; 800 ng/mL, room temperature for 6 h): 96.1 ± 1.88%
remaining at 800 ng/mL ([1]; 800 ng/mL, three freeze thaw cycle): 97.2 ± 1.76%
Elimination rate constant (K) ([2]; I.V administration of Emetrex 50 mg): 0.274 ± 0.10
Tmax ([2]; intravenous, 50 mg, after I.V injection): 2 h
AUC(0-inf) [2, 3]: 213 ± 7.21 µg·h/mL
AUC(0-t) [2, 3]: 22.3 ± 1.22 µg·h/mL
Cmax [2, 3]: 72.8 ± 1.56 ng/mL
half-life [2, 3]: 2.53 ± 0.43 h
Vd ([2]; intravenous, I.V administration of Emetrex 50 mg, read-out: Volume of distribution (Vd)): 0.695 ± 0.23 L
